According to PubChem BioAssay (NCI):
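In this assay, cells in 96-well plates receive the compound at five concentrations for 48 hours. Endpoints are linearly interpolated between the surrounding concentrations. GI50 is the concentration that inhibits growth by half. Definition used: TGI = concentration required for complete inhibition of growth.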 Where a SMILES comes first, the peptide text is derived from it.

Key:
Experiment in all cases: NCI tumour cell line growth inhibition, 48 h
UACC-257 melanoma = tested on: UACC-257 melanoma
CAKI-1 renal = tested on: CAKI-1 renal
RXF 393 renal = tested on: RXF 393 renal
NCI/ADR-RES ovarian = tested on: NCI/ADR-RES ovarian
HT29 colon = tested on: HT29 colon
HOP-62 NSCLC = tested on: HOP-62 NSCLC
KM12 colon = tested on: KM12 colon
HCC-2998 colon = tested on: HCC-2998 colon
OVCAR-3 ovarian = tested on: OVCAR-3 ovarian
SR leukemia = tested on: SR leukemia

Row | SMILES | GI50 (UACC-257 melanoma) [µM] | TGI (UACC-257 melanoma) [µM] | GI50 (CAKI-1 renal) [µM] | TGI (CAKI-1 renal) [µM] | GI50 (RXF 393 renal) [µM] | TGI (RXF 393 renal) [µM] | GI50 (NCI/ADR-RES ovarian) [µM] | TGI (NCI/ADR-RES ovarian) [µM] | GI50 (HT29 colon) [µM] | TGI (HT29 colon) [µM] | GI50 (HOP-62 NSCLC) [µM] | TGI (HOP-62 NSCLC) [µM] | GI50 (KM12 colon) [µM] | TGI (KM12 colon) [µM] | GI50 (HCC-2998 colon) [µM] | TGI (HCC-2998 colon) [µM] | GI50 (OVCAR-3 ovarian) [µM] | TGI (OVCAR-3 ovarian) [µM] | TGI (SR leukemia) [µM] | GI50 (SR leukemia) [µM]
1 | NCCOc1ccccc1/C=C1\c2ccccc2-c2ccc([N+](=O)[O-])cc21 | 1.7 | 3.31 | 1.38 | 2.72 | 1.6 | 3.1 | 1.77 | 3.54 | 1.42 | 2.84 | 1.53 | 3.18 | 1.55 | 2.94 | 1.51 | 3.09 | 1.76 | 3.17 |  | 
2 | CCCCCCCCCCCCCCCC(=O)OCC1OC(OC)C2NP(=O)(N(CCCl)CCCl)OC1C2O (centres undefined) |  | 42.9 |  | 10.5 |  | 3.99 |  |  |  | > 66.8 |  | 10.8 |  | 41.9 |  | 9.46 |  | 10.7 | 1.78 | 
3 | CCCCN[C@H]1C2C3CC4C5CC(C42)C1(C)C53 (some centres undefined) |  | > 100 |  | > 100 |  | > 100 |  |  |  | > 100 |  | > 100 |  | > 100 |  | > 100 |  | > 100 | > 100 | 
4 | COc1ccc(/C=c2/sc3n(c2=O)NC2(CCC(C)CC2)NN=3)cc1 (centres undefined) |  |  |  | > 100 |  | > 100 |  |  |  | > 100 |  | > 100 |  | > 100 |  | > 100 |  | > 100 | > 100 | 
5 | CCC(C)C1NC(=O)C2CCCN2C(=O)CNC(=O)C(C)NC(=O)C(Cc2ccccc2)NC(=O)C(C(C)C)NC1=O (centres undefined) (cyclo(GPIVFA); configuration not given here) |  | > 100 |  | > 100 |  | > 100 |  |  |  | > 100 |  | > 100 |  | > 100 |  | > 100 |  | > 100 | > 100 | 
6 | O=C(Nc1cc(Cl)cc(Cl)c1)/C(Cc1nc2ccccc2[nH]c1=O)=N/NC(=O)c1ccncc1 |  | > 100 |  | > 100 |  |  |  |  |  |  |  | > 100 |  | > 100 |  | > 100 |  | > 100 |  | 
7 | CC1C[C@]2(C[C@@H](C)C(=O)O2)O[C@@H]2CC3(C)[C@@H]4CCC5C(C)(C)OC(=O)C[C@H]6OO[C@]4(CC[C@]3(C)C12)CC56O (some centres undefined) |  | > 100 |  |  |  | > 100 |  |  |  | > 100 |  |  |  |  |  | > 100 |  | > 100 | > 100 | 
8 | CNS(=O)(=O)NN(C)S(=O)(=O)c1ccc2ccccc2c1 |  | > 100 |  | > 100 |  | > 100 |  |  |  | > 100 |  | > 100 |  | > 100 |  | > 100 |  |  | > 100 | 
9 | Oc1ccc(CCNCc2cc3c(cc2Br)OCO3)cc1 |  | > 100 |  |  |  | > 100 |  | > 100 |  | > 100 |  | > 100 |  |  |  |  |  | > 100 | > 100 | 
10 | O=S(=O)([O-])[O-].[Cl-].[NH2-].[NH2-].[NH2-].[NH2-].[Ru+3].c1ccncc1 |  | > 100 |  | > 100 |  |  |  |  |  | > 100 |  | > 100 |  | > 100 |  | > 100 |  | > 100 | > 100 | 
11 | C#CC1(O)c2ccccc2C(=O)c2ccccc21 |  | > 100 |  | > 100 |  | > 100 |  |  |  | > 100 |  | > 100 |  | > 100 |  | > 100 |  |  | > 100 | 
12 | CCOC(=O)[C@H]1Nc2ccc([N+](=O)[O-])cc2C2c3ccccc3CC21 (some centres undefined) |  | 40.2 |  | > 100 |  | 18.3 |  |  |  | 35.4 |  | 39 |  | > 100 |  | 44.2 |  | 23.1 | > 100 | 
13 | CC(CNCCCNCCNCCCNCO)[N+](=O)[O-] (centres undefined) |  | 26.1 |  | 18.6 |  | 29.2 |  |  |  | 41.7 |  | > 100 |  | 29.7 |  | 31 |  | 30.4 | 28.4 | 
14 | CC(=O)C1=C(C)N(C)C2(O)C=CC(=O)C3=C(O)c4ccccc4C(=O)C312 (centres undefined) | 5.73 | > 100 | 3.52 | 9.65 |  |  | 5.49 | > 100 | 24.1 | > 100 | 5.16 | 18.4 |  |  | 13.8 | 61.8 |  |  | > 100 | > 100
15 | CC1=C(C(=O)Nc2ccc([N+](=O)[O-])cc2)C(c2ccc3c(c2)OCO3)C(C(=O)Nc2ccc([N+](=O)[O-])cc2)=C(C)N1 |  | 50.7 |  | > 100 |  | > 100 |  |  |  | > 100 |  | > 100 |  | 24.9 |  | 57.4 |  | > 100 |  | 
16 | Cc1ccc(-c2cc(=O)c3cc(C)c(C)c(C(=O)O)c3o2)cc1N |  | > 100 |  | > 100 |  | > 100 |  |  |  | > 100 |  |  |  | > 100 |  |  |  | > 100 |  | 
17 | COc1cc(C2C3=C(COC3=O)Nc3c2ccc2c3CCCC2)cc2c1OCO2 (centres undefined) |  |  | 0.0775 | > 100 |  |  | 0.0391 | 19.1 | 0.0357 | 3.97 | 0.0426 | 18.7 | 0.0356 | 0.412 | 0.052 |  | 0.0233 | 0.0518 | > 21 | 0.0354
18 | COC(=O)C(CBr)CBr |  | 12.5 |  | 10 |  | 4.86 |  | 8.45 |  | 11 |  | 40.7 |  | 24.3 |  | 10.9 |  | 7.09 |  | 
19 | C=CC/C(=C\COP(=O)(OCc1ccc([N+](=O)[O-])o1)N(C)CCCCCl)CC/C=C(\C)CCC=C(C)C (centres undefined) | 16.5 | 30 | 8.03 | 21.2 | 12.4 | 24.9 | 11.9 | 24.1 | 11.6 | 25.5 |  |  | 9.94 | > 100 |  |  |  |  | 41.8 | 3.46
20 | C=C1C2CC(OC(C)=O)C3(C)C(c4ccoc4)OC(=O)[C@@H](O)[C@]13OC1C[C@H](OC(C)=O)C(C)(C)[C@H](CC(=O)OC)[C@]12C (some centres undefined) |  |  |  |  |  |  |  |  |  | > 100 |  |  |  | > 100 |  | > 100 |  | > 100 |  | 
21 | CC12CO[C@@](C)(CC(S(=O)(=O)c3ccccc3)C1)O2 (some centres undefined) |  | > 100 |  |  |  | > 100 |  |  |  | > 100 |  | > 100 |  | > 100 |  | > 100 |  | > 100 | > 100 | 
22 | CC(/C=C/c1ccccc1)=N\NC(N)=S |  | > 100 |  | > 100 |  |  |  | 84 |  | > 100 |  | > 100 |  | > 100 |  | 79.1 |  | 66.8 | 65.3 | 
23 | COc1ccc(/C(Cl)=C(\c2ccc(OCCN(C)C)cc2)c2ccc(OC(=O)C(C)(C)C)cc2)cc1 |  |  |  | 27.8 |  | 21.7 |  |  |  | 11.5 |  | 30.5 |  | 26.4 |  | 29.2 |  | 28.5 | 21.8 | 
